The values that follow are results of earlier work, collected in patent US20080063668A1, “Nitroimidazole and terconazole composition and method” (priority 2006, published 2008).

Where a name gives a salt, the structure may show the parent alone.

For this data set the following is noted: neutral pH; cited from earlier work.

As for `CC(C)N1CCN(c2ccc(OCC3COC(Cn4cncn4)(c4ccc(Cl)cc4Cl)O3)cc2)CC1` (stereo not shown) [Terconazole hydrochloride], the solubility in water entry is “about 0.007 percent by weight”.
